Reference: PubChem BioAssay (NCI)
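All cell lines were grown in 96-well plates and treated with compound for 48 hours. GI50 = concentration required for 50% inhibition of growth. TGI is the concentration that stops growth completely.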

Tests used:
Assay in all cases: NCI-60 cell line screen, 48 h
COLO 205 colon = system: COLO 205 colon
OVCAR-3 ovarian = system: OVCAR-3 ovarian
SR leukemia = system: SR leukemia
SK-MEL-2 melanoma = system: SK-MEL-2 melanoma
NCI-H226 lung = system: NCI-H226 lung
K-562 leukemia = system: K-562 leukemia
MDA-MB-435 = system: MDA-MB-435
SK-OV-3 ovarian = system: SK-OV-3 ovarian
SNB-75 CNS = system: SNB-75 CNS
HS 578T breast = system: HS 578T breast
MOLT-4 leukemia = system: MOLT-4 leukemia
A498 renal = system: A498 renal
SNB-19 CNS = system: SNB-19 CNS
HCC-2998 colon = system: HCC-2998 colon
IGROV1 ovarian = system: IGROV1 ovarian
NCI-H460 lung = system: NCI-H460 lung
PC-3 prostate = system: PC-3 prostate
HOP-92 NSCLC = system: HOP-92 NSCLC
CCRF-CEM leukemia = system: CCRF-CEM leukemia
U251 CNS = system: U251 CNS
UACC-62 melanoma = system: UACC-62 melanoma
HCT-15 colon = system: HCT-15 colon
RPMI-8226 leukemia = system: RPMI-8226 leukemia
LOX IMVI melanoma = system: LOX IMVI melanoma
MDA-MB-231 breast = system: MDA-MB-231 breast
ACHN renal = system: ACHN renal
HOP-62 NSCLC = system: HOP-62 NSCLC
BT-549 breast = system: BT-549 breast
MCF7 breast = system: MCF7 breast
OVCAR-8 ovarian = system: OVCAR-8 ovarian
786-0 renal = system: 786-0 renal
A549 NSCLC = system: A549 NSCLC
DU-145 prostate = system: DU-145 prostate
NCI-H522 lung = system: NCI-H522 lung
SW-620 colon = system: SW-620 colon
SF-295 CNS = system: SF-295 CNS
TK-10 renal = system: TK-10 renal
SF-268 CNS = system: SF-268 CNS
NCI-H23 lung = system: NCI-H23 lung
M14 melanoma = system: M14 melanoma
OVCAR-4 ovarian = system: OVCAR-4 ovarian
NCI/ADR-RES ovarian = system: NCI/ADR-RES ovarian
UO-31 renal = system: UO-31 renal
HT29 colon = system: HT29 colon
SN12C renal = system: SN12C renal
HL-60(TB) leukemia = system: HL-60(TB) leukemia
HCT-116 colon = system: HCT-116 colon
EKVX NSCLC = system: EKVX NSCLC
SK-MEL-5 melanoma = system: SK-MEL-5 melanoma
KM12 colon = system: KM12 colon
SF-539 CNS = system: SF-539 CNS
T-47D breast = system: T-47D breast
SK-MEL-28 melanoma = system: SK-MEL-28 melanoma
MALME-3M melanoma = system: MALME-3M melanoma
OVCAR-5 ovarian = system: OVCAR-5 ovarian

With COc1ccc2cc(C(=O)N3CCC([C@@H](C)C(=O)NCc4ccc5c(c4)OCO5)CC3)[nH]c2c1 as the molecule, how does the GI50 (COLO 205 colon) read?
The GI50 was > 100 µM.

What about the TGI (COLO 205 colon) of the same molecule?
The TGI was > 100 µM.

What about the GI50 (OVCAR-3 ovarian) of the same molecule?
Its GI50 is > 100 µM.

And the TGI (OVCAR-3 ovarian)?
The TGI was > 100 µM.

And the GI50 (SR leukemia)?
Its GI50 is > 100 µM.

What about the TGI (SR leukemia) of the same molecule?
The TGI was > 100 µM.

And the GI50 (SK-MEL-2 melanoma)?
Its GI50 is > 100 µM.

What about the TGI (SK-MEL-2 melanoma) of the same molecule?
The TGI was > 100 µM.

What about the GI50 (NCI-H226 lung) of the same molecule?
The GI50 was > 100 µM.

What about the TGI (NCI-H226 lung) of the same molecule?
The TGI was > 100 µM.

And the GI50 (K-562 leukemia)?
Its GI50 is 79.4 µM.

What about the TGI (K-562 leukemia) of the same molecule?
The TGI was > 100 µM.

What about the GI50 (MDA-MB-435) of the same molecule?
The GI50 was 51.2 µM.

What about the TGI (MDA-MB-435) of the same molecule?
Its TGI is > 100 µM.

And the GI50 (SK-OV-3 ovarian)?
Its GI50 is > 100 µM.

What about the TGI (SK-OV-3 ovarian) of the same molecule?
Its TGI is > 100 µM.

What about the GI50 (SNB-75 CNS) of the same molecule?
The GI50 was 17.8 µM.

What about the TGI (SNB-75 CNS) of the same molecule?
Its TGI is 78.3 µM.

What about the GI50 (HS 578T breast) of the same molecule?
Its GI50 is 27.9 µM.

What about the TGI (HS 578T breast) of the same molecule?
Its TGI is > 100 µM.

What about the GI50 (MOLT-4 leukemia) of the same molecule?
The GI50 was > 100 µM.

What about the TGI (MOLT-4 leukemia) of the same molecule?
The TGI was > 100 µM.

And the GI50 (A498 renal)?
Its GI50 is > 100 µM.

And the TGI (A498 renal)?
Its TGI is > 100 µM.

And the GI50 (SNB-19 CNS)?
The GI50 was 56.7 µM.

What about the TGI (SNB-19 CNS) of the same molecule?
The TGI was > 100 µM.

And the GI50 (HCC-2998 colon)?
The GI50 was > 100 µM.

What about the TGI (HCC-2998 colon) of the same molecule?
Its TGI is > 100 µM.

And the GI50 (IGROV1 ovarian)?
The GI50 was > 100 µM.

And the TGI (IGROV1 ovarian)?
Its TGI is > 100 µM.

And the GI50 (NCI-H460 lung)?
The GI50 was > 100 µM.

What about the TGI (NCI-H460 lung) of the same molecule?
Its TGI is > 100 µM.

What about the GI50 (PC-3 prostate) of the same molecule?
Its GI50 is > 100 µM.

What about the TGI (PC-3 prostate) of the same molecule?
The TGI was > 100 µM.

And the GI50 (HOP-92 NSCLC)?
Its GI50 is 23.4 µM.

What about the TGI (HOP-92 NSCLC) of the same molecule?
Its TGI is > 100 µM.

What about the GI50 (CCRF-CEM leukemia) of the same molecule?
Its GI50 is > 100 µM.

What about the TGI (CCRF-CEM leukemia) of the same molecule?
The TGI was > 100 µM.

What about the GI50 (U251 CNS) of the same molecule?
The GI50 was > 100 µM.

What about the TGI (U251 CNS) of the same molecule?
Its TGI is > 100 µM.

And the GI50 (UACC-62 melanoma)?
The GI50 was 28.1 µM.

And the TGI (UACC-62 melanoma)?
The TGI was > 100 µM.

What about the GI50 (HCT-15 colon) of the same molecule?
The GI50 was > 100 µM.

What about the TGI (HCT-15 colon) of the same molecule?
Its TGI is > 100 µM.

And the GI50 (RPMI-8226 leukemia)?
Its GI50 is > 100 µM.

And the TGI (RPMI-8226 leukemia)?
Its TGI is > 100 µM.

What about the GI50 (LOX IMVI melanoma) of the same molecule?
Its GI50 is 50.1 µM.

And the TGI (LOX IMVI melanoma)?
The TGI was > 100 µM.

And the GI50 (MDA-MB-231 breast)?
Its GI50 is > 100 µM.

What about the TGI (MDA-MB-231 breast) of the same molecule?
Its TGI is > 100 µM.

What about the GI50 (ACHN renal) of the same molecule?
Its GI50 is 48.1 µM.

What about the TGI (ACHN renal) of the same molecule?
Its TGI is > 100 µM.

What about the GI50 (HOP-62 NSCLC) of the same molecule?
The GI50 was 45.9 µM.

What about the TGI (HOP-62 NSCLC) of the same molecule?
Its TGI is > 100 µM.

What about the GI50 (BT-549 breast) of the same molecule?
The GI50 was 43.7 µM.

What about the TGI (BT-549 breast) of the same molecule?
The TGI was > 100 µM.

And the GI50 (MCF7 breast)?
Its GI50 is > 100 µM.

What about the TGI (MCF7 breast) of the same molecule?
The TGI was > 100 µM.

And the GI50 (OVCAR-8 ovarian)?
Its GI50 is 48.4 µM.

What about the TGI (OVCAR-8 ovarian) of the same molecule?
Its TGI is > 100 µM.

What about the GI50 (786-0 renal) of the same molecule?
Its GI50 is 36.7 µM.

What about the TGI (786-0 renal) of the same molecule?
The TGI was > 100 µM.

What about the GI50 (A549 NSCLC) of the same molecule?
The GI50 was > 100 µM.

What about the TGI (A549 NSCLC) of the same molecule?
The TGI was > 100 µM.

What about the GI50 (DU-145 prostate) of the same molecule?
The GI50 was > 100 µM.

And the TGI (DU-145 prostate)?
Its TGI is > 100 µM.

And the GI50 (NCI-H522 lung)?
Its GI50 is > 100 µM.

And the TGI (NCI-H522 lung)?
The TGI was > 100 µM.

And the GI50 (SW-620 colon)?
Its GI50 is > 100 µM.

And the TGI (SW-620 colon)?
Its TGI is > 100 µM.

And the GI50 (SF-295 CNS)?
The GI50 was 68.5 µM.

What about the TGI (SF-295 CNS) of the same molecule?
The TGI was > 100 µM.

What about the GI50 (TK-10 renal) of the same molecule?
The GI50 was > 100 µM.

What about the TGI (TK-10 renal) of the same molecule?
Its TGI is > 100 µM.

And the GI50 (SF-268 CNS)?
The GI50 was 77.3 µM.

And the TGI (SF-268 CNS)?
The TGI was > 100 µM.

What about the GI50 (NCI-H23 lung) of the same molecule?
Its GI50 is > 100 µM.

What about the TGI (NCI-H23 lung) of the same molecule?
Its TGI is > 100 µM.

And the GI50 (M14 melanoma)?
The GI50 was > 100 µM.

What about the TGI (M14 melanoma) of the same molecule?
The TGI was > 100 µM.

What about the GI50 (OVCAR-4 ovarian) of the same molecule?
Its GI50 is > 100 µM.

What about the TGI (OVCAR-4 ovarian) of the same molecule?
Its TGI is > 100 µM.

And the GI50 (NCI/ADR-RES ovarian)?
The GI50 was > 100 µM.

What about the TGI (NCI/ADR-RES ovarian) of the same molecule?
The TGI was > 100 µM.

What about the GI50 (UO-31 renal) of the same molecule?
The GI50 was > 100 µM.

What about the TGI (UO-31 renal) of the same molecule?
Its TGI is > 100 µM.

What about the GI50 (HT29 colon) of the same molecule?
The GI50 was > 100 µM.

And the TGI (HT29 colon)?
The TGI was > 100 µM.

And the GI50 (SN12C renal)?
Its GI50 is > 100 µM.

What about the TGI (SN12C renal) of the same molecule?
The TGI was > 100 µM.

What about the GI50 (HL-60(TB) leukemia) of the same molecule?
Its GI50 is > 100 µM.

What about the TGI (HL-60(TB) leukemia) of the same molecule?
Its TGI is > 100 µM.

What about the GI50 (HCT-116 colon) of the same molecule?
The GI50 was > 100 µM.

What about the TGI (HCT-116 colon) of the same molecule?
The TGI was > 100 µM.

And the GI50 (EKVX NSCLC)?
Its GI50 is > 100 µM.

And the TGI (EKVX NSCLC)?
Its TGI is > 100 µM.

And the GI50 (SK-MEL-5 melanoma)?
Its GI50 is > 100 µM.

And the TGI (SK-MEL-5 melanoma)?
Its TGI is > 100 µM.

And the GI50 (KM12 colon)?
The GI50 was > 100 µM.

What about the TGI (KM12 colon) of the same molecule?
The TGI was > 100 µM.

And the GI50 (SF-539 CNS)?
The GI50 was > 100 µM.

What about the TGI (SF-539 CNS) of the same molecule?
Its TGI is > 100 µM.

And the GI50 (T-47D breast)?
Its GI50 is > 100 µM.

And the TGI (T-47D breast)?
Its TGI is > 100 µM.

What about the GI50 (SK-MEL-28 melanoma) of the same molecule?
The GI50 was > 100 µM.

What about the TGI (SK-MEL-28 melanoma) of the same molecule?
The TGI was > 100 µM.

And the GI50 (MALME-3M melanoma)?
Its GI50 is > 100 µM.

What about the TGI (MALME-3M melanoma) of the same molecule?
The TGI was > 100 µM.

And the GI50 (OVCAR-5 ovarian)?
Its GI50 is > 100 µM.

And the TGI (OVCAR-5 ovarian)?
The TGI was > 100 µM.
